Values joined by “and” are separate entries in the source; they are usually repeats but may differ in a detail not shown here. Identical values can stand only once.
Experiments:
Zika virus = assay: EC50 is reported via analysis of immunofluorescence staining. The assay has been performed by Icahn School of Medicine at Mount Sinai.; assay type: functional, organism-based, Chlorocebus sabaeus, VeroE6/TMPRSS2
dengue virus type 2 [1] = assay: Functional immunofluorescence assay to measure dose dependent changes in antiviral-drug inhibitory efficacy against Dengue virus type 2 Thailand/16681/84 in Vero E6/TMPRSS2 cells (cotreated with P-gp inhibitor, Elacridar). Cells are treated with antiviral candidates that are serially diluted, following infection, cells are fixed. EC50 is reported via analysis of immunofluorescence staining. The assay has been performed by Icahn School of Medicine at Mount Sinai.; assay type: organism-based, Chlorocebus sabaeus, VeroE6/TMPRSS2; conditions: for EC90: P-gp concentration 2 uM, P-gp inhibitor Elacidar
dengue virus type 2 [2] = assay: Functional assay to measure dose dependent changes in antiviral-drug inhibitory efficacy against Dengue virus type 2 New Guinea C in Vero E6 miRFP670 cells (cotreated with P-gp inhibitor, CP100356). Cells are treated with antiviral candidates that are serially diluted, following infection, cells are fixed. EC50 is reported via analysis of fluorescence intensity using high-content imager. The …; assay type: organism-based, Chlorocebus sabaeus, Vero C1008; conditions: Dengue virus; for EC90: P-gp concentration 500 nM, P-gp inhibitor CP100356

## NCc1cccc(NC(=O)c2cc(Cl)cc(-n3cccc3)c2)c1
Zika virus; Zika virus, VeroE6/TMPRSS2
  EC50: > 5.56 µM
Zika virus; Zika virus, VeroE6/TMPRSS2, Maximum measured 124.363 %, Minimum measured 74.851 %, P-gp concentration 2 uM, P-gp inhibitor Elacidar
  EC90: > 5.56 µM
Dengue virus type 2 [1]; Dengue virus, VeroE6/TMPRSS2
  EC50: 13.9 µM
Dengue virus type 2 [1]; Dengue virus, VeroE6/TMPRSS2, Baseline response 0 %, Hill slope -2.713, Maximum measured 77.83 %, Maximum response 65.791 %, Minimum measured 24.724 %, R squared 0.597
  EC90: > 16.7 µM
Dengue virus type 2 [2]; Vero C1008
  EC50: 14.4 µM
Dengue virus type 2 [2]; Vero C1008, Baseline response 0 %, EC90 CI (lower) 7.414 uM, EC90 CI (upper) 19.74 uM, Hill slope -12.44, Maximum measured 108.218 %, Maximum response 100 %, Minimum measured 0.325 %, R squared 0.952
  EC90: 17.2 µM

## NCc1cccc(NC(=O)c2cc(Cl)cc(CN)c2)c1
Zika virus; Zika virus, VeroE6/TMPRSS2, Maximum measured 123.027 %, Minimum measured 86.3 %, P-gp concentration 2 uM, P-gp inhibitor Elacidar
  EC90: > 50 µM
Zika virus; Zika virus, VeroE6/TMPRSS2, Baseline response 0 %, Hill slope -0.468, Maximum measured 130.938 %, Maximum response 100 %, Minimum measured 51.052 %, P-gp concentration 2 uM, R squared 0.396, P-gp inhibitor Elacidar
  EC90: > 3.33 µM
Zika virus; veroe6/tmprss2
  EC50: > 50 µM
Dengue virus type 2 [1]; Baseline response 0 %, Hill slope -0.259, Maximum measured 118.193 %, Maximum response 100 %, Minimum measured 55.278 %, R squared 0.275
  EC90: > 10 µM
Dengue virus type 2 [1]; Baseline response 0 %, Hill slope -0.379, Maximum measured 148.524 %, Maximum response 100 %, Minimum measured 29.621 %, R squared 0.276
  EC90: > 50 µM
Dengue virus type 2 [1]; veroe6/tmprss2
  EC50: > 10 µM and 48.2 µM

## c1ccc2c(CN3CCC(c4cscn4)CC3)c[nH]c2c1
Zika virus; Zika virus, VeroE6/TMPRSS2, Maximum measured 113.51 %, Minimum measured 55.055 %, P-gp concentration 2 uM, P-gp inhibitor Elacidar
  EC90: > 10 µM
Zika virus; Zika virus, VeroE6/TMPRSS2, Maximum measured 115.408 %, Minimum measured 68.286 %, P-gp concentration 2 uM, P-gp inhibitor Elacidar
  EC90: > 50 µM
Zika virus; veroe6/tmprss2
  EC50: > 50 µM
Dengue virus type 2 [1]; Baseline response 0 %, Hill slope -0.247, Maximum measured 100.251 %, Maximum response 100 %, Minimum measured 62.836 %, R squared 0.15
  EC90: > 10 µM
Dengue virus type 2 [1]; Baseline response 0 %, Hill slope -0.248, Maximum measured 160.986 %, Maximum response 100 %, Minimum measured 66.91 %, R squared 0.115
  EC90: > 50 µM
Dengue virus type 2 [1]; veroe6/tmprss2
  EC50: > 50 µM

## NCCCCc1ccc(NC(=O)c2cc(Cl)cc(NC(=O)OCc3ccccc3)c2)cc1
Zika virus; Zika virus, VeroE6/TMPRSS2
  EC50: > 5.56 µM
Zika virus; Zika virus, VeroE6/TMPRSS2, Maximum measured 140.797 %, Minimum measured 81.401 %, P-gp concentration 2 uM, P-gp inhibitor Elacidar
  EC90: > 5.56 µM
Dengue virus type 2 [1]; Dengue virus, VeroE6/TMPRSS2
  EC50: > 5.56 µM
Dengue virus type 2 [1]; Dengue virus, VeroE6/TMPRSS2, Maximum measured 145.088 %, Minimum measured 103.355 %
  EC90: > 5.56 µM
Dengue virus type 2 [2]; Vero C1008
  EC50: 4.18 µM
Dengue virus type 2 [2]; Vero C1008, Baseline response 0 %, EC90 CI (lower) 1.854 uM, EC90 CI (upper) 4.634 uM, Hill slope -6.186, Maximum measured 92.478 %, Maximum response 100 %, Minimum measured 7.244 %, R squared 0.772
  EC90: 5.96 µM

## CC(C)OC(=O)Nc1cc(Cl)cc(C(=O)Nc2cccc(CN)c2)c1
Zika virus; Zika virus, VeroE6/TMPRSS2
  EC50: > 16.7 µM
Zika virus; Zika virus, VeroE6/TMPRSS2, Maximum measured 132.205 %, Minimum measured 71.008 %, P-gp concentration 2 uM, P-gp inhibitor Elacidar
  EC90: > 16.7 µM
Dengue virus type 2 [1]; Dengue virus, VeroE6/TMPRSS2
  EC50: > 16.7 µM
Dengue virus type 2 [1]; Dengue virus, VeroE6/TMPRSS2, Baseline response 0 %, Hill slope -10.347, Maximum measured 131.012 %, Maximum response 100 %, Minimum measured 66.05 %, R squared 0.241
  EC90: > 16.7 µM
Dengue virus type 2 [2]; Vero C1008
  EC50: > 6.25 µM
Dengue virus type 2 [2]; Vero C1008, Maximum measured 143.842 %, Minimum measured 98.266 %
  EC90: > 6.25 µM

## NCCCc1ccnc(NC(=O)c2cc(Cl)cc(NC(=O)OCc3ccccc3)c2)c1
Zika virus; Zika virus, VeroE6/TMPRSS2
  EC50: 0.532 µM
  EC90: 3.24 µM
Dengue virus type 2 [1]; Dengue virus, VeroE6/TMPRSS2
  EC50: > 5.56 µM
Dengue virus type 2 [1]; Dengue virus, VeroE6/TMPRSS2, Baseline response 0 %, Hill slope -1.225, Maximum measured 82.874 %, Maximum response 60 %, Minimum measured 33.609 %, R squared 0.331
  EC90: > 5.56 µM

## NS(=O)(=O)c1ccc(C2CCN(Cc3c[nH]c4ccccc34)CC2)cc1
Zika virus; Zika virus, VeroE6/TMPRSS2, Maximum measured 220.71 %, Minimum measured 69.091 %, P-gp concentration 2 uM, P-gp inhibitor Elacidar
  EC90: > 10 µM
Zika virus; Zika virus, VeroE6/TMPRSS2, Baseline response 0 %, Hill slope -0.394, Maximum measured 150.63 %, Maximum response 100 %, Minimum measured 65.565 %, P-gp concentration 2 uM, R squared 0.026, P-gp inhibitor Elacidar
  EC90: > 50 µM
Zika virus; veroe6/tmprss2
  EC50: > 50 µM
Dengue virus type 2 [1]; Dengue virus, VeroE6/TMPRSS2
  EC50: > 50 µM
Dengue virus type 2 [1]; Dengue virus, VeroE6/TMPRSS2, Baseline response 0 %, Hill slope -0.438, Maximum measured 120.121 %, Maximum response 100 %, Minimum measured 70.269 %, R squared 0.213
  EC90: > 50 µM

## O=C(Nc1cc(Cl)cc(N[C@H](C#CCO)c2ccc(-c3nn[nH]n3)cc2)c1)OCc1ccccc1
Zika virus; Zika virus, VeroE6/TMPRSS2
  EC50: > 16.7 µM
Zika virus; Zika virus, VeroE6/TMPRSS2, Maximum measured 78.226 %, Minimum measured 29.543 %, P-gp concentration 2 uM, P-gp inhibitor Elacidar
  EC90: > 16.7 µM
Dengue virus type 2 [1]; Dengue virus, VeroE6/TMPRSS2
  EC50: > 50 µM
Dengue virus type 2 [1]; Dengue virus, VeroE6/TMPRSS2, Baseline response 0 %, Hill slope -0.373, Maximum measured 106.055 %, Maximum response 100 %, Minimum measured 56.8 %, R squared 0.212
  EC90: > 50 µM

## O=C(O)c1cc(Cl)ccc1S(=O)(=O)NC1CCN(c2nc(C3CC3)cc(C(F)(F)F)n2)CC1
Zika virus; Zika virus, VeroE6/TMPRSS2, Maximum measured 121.005 %, Minimum measured 84.589 %, P-gp concentration 2 uM, P-gp inhibitor Elacidar
  EC90: > 16.7 µM
Zika virus; Zika virus, VeroE6/TMPRSS2, Baseline response 0 %, Hill slope -0.273, Maximum measured 117.096 %, Maximum response 100 %, Minimum measured 55.547 %, P-gp concentration 2 uM, R squared 0.133, P-gp inhibitor Elacidar
  EC90: > 3.33 µM
Zika virus; veroe6/tmprss2
  EC50: > 16.7 µM
Dengue virus type 2 [1]; Dengue virus, VeroE6/TMPRSS2, Maximum measured 136.17 %, Minimum measured 94.607 %
  EC90: > 16.7 µM
Dengue virus type 2 [1]; Dengue virus, VeroE6/TMPRSS2, Baseline response 0 %, Hill slope -0.112, Maximum measured 104.285 %, Maximum response 100 %, Minimum measured 47.241 %, R squared 0.035
  EC90: > 3.33 µM
Dengue virus type 2 [1]; veroe6/tmprss2
  EC50: > 16.7 µM

Reference: ChEMBL document CHEMBL5661943, “ASAP - In vitro antiviral effect” (2024)
